Our source for the IC50 values is US8557816B2, “Aurora kinase modulators and method of use” (Amgen Inc., priority 2007, dated 2013).

The target of one experiment is T1, AuroraA-TPX2 (Homo sapiens, UniProt O14965).
T1 construct: 20 μL of AuroraA-TPX2 KD GST for a final volume of about 41 μL; GST
T1 sequence (O14965 133-383 limits assumed): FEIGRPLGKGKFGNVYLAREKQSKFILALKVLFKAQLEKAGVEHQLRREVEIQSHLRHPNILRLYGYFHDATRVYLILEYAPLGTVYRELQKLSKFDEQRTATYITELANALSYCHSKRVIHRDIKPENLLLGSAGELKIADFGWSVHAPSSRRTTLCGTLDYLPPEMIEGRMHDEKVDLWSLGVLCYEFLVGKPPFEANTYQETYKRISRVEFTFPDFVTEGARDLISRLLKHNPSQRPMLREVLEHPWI
T1 sequence (Q9ULW0 1-43 partner limits assumed): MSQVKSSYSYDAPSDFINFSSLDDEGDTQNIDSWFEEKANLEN
Briefly: AuroraA-TPX2 Homogeneous Time Resolved Fluorescent (HTRF) kinase assay. The class given is biochemical. Particulars: average; read-out: AurA_IC50_IP (uM Avg). An outline of the steps: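 HTRF read-out (Eu 615 nm to APC 655 nm) of phosphorylated biotin-PLK, detected with 0.02 nM europium anti-phosphoPLK antibody and 0.0005 mg/mL SA-APC after overnight equilibration.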
On the technique in general: TR-FRET usually uses a lanthanide donor and a delayed reading to cut background.

The target in the next experiment is T2, AuroraB (Homo sapiens, UniProt Q96GD4).
T2 construct: 20 μL of AuroraB FL H is for a final volume of 41 μL; His
T2 sequence (Q96GD4 whole entry): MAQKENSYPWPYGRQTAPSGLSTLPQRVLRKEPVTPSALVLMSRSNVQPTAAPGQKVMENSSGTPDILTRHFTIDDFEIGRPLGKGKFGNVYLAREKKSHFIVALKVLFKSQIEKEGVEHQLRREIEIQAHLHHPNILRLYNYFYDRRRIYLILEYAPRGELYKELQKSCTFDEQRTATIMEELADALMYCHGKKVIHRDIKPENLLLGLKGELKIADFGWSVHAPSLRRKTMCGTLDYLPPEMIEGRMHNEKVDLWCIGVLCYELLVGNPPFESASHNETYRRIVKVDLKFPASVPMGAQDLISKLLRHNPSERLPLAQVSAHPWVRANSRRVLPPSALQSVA
Briefly: AuroraB Homogeneous Time Resolved Fluorescent (HTRF) kinase assay. Particulars: average; read-out: AurB_IC50_IP (uM Avg). Type of experiment: biochemical. A digest of the protocol: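 Read-out is time-resolved FRET between europium anti-phospho-H3 antibody and streptavidin-APC, added in EDTA buffer to stop the reaction and equilibrated about 60 min (ex 320, em 615 and 655 nm). Preceding reaction: ~90 min, full-length enzyme, ATP, 0.1 μM biotin-Histone H3 substrate, Mg/Mn HEPES buffer pH 7.5.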

Consider `c1ccc(-c2nnc(Nc3ccc(Sc4ccnc5ccccc45)cc3)c3ccccc23)cc1` [compound 310, 4-phenyl-N-(4-(4-quinolinylthio)phenyl)-1-phthalazinamine], for which the IC50 is 0.209 µM at AuroraA-TPX2 and 0.017 µM on AuroraB.
For the compound `COc1cnc2c(Oc3ccc(Nc4nnc(-c5cc(C)ccn5)c5ccccc45)cc3)ccnc2c1` [compound 116, N-(4-((7-(methyloxy)-1,5-naphthyridin-4-yl)oxy)phenyl)-4-(4-methyl-2-pyridinyl)-1-phthalazinamine], the IC50 at AuroraA-TPX2 was determined as 0.062 µM; on AuroraB, 0.011 µM.
Take `FC(F)(F)Oc1ccc2c(Sc3ccc(Nc4nnc(-c5ccccc5)c5ccccc45)cc3)ccnc2c1` [compound 497]: the IC50 on AuroraA-TPX2 was > 25 µM; on AuroraB it was 0.333 µM.
On to `COCCOc1ccc(-c2nnc(Nc3ccc(Sc4ccnc5cc(OC)cnc45)cc3)c3ccccc23)cc1` [compound 474], for which the values for the IC50 at AuroraA-TPX2 and on AuroraB were 0.051 µM and 0.016 µM, respectively.
The like results for `COc1ccc(-c2nnc(Nc3ccc(Oc4ccnc5cc(C#N)ccc45)cc3)c3ccccc23)cc1` [compound 141, 4-((4-((4-(4-(methyloxy)phenyl)-1-phthalazinyl)amino)phenyl)oxy)-7-quinolinecarbonitrile] were, in that order, 0.019 µM and 0.004 µM.
Turning to `COc1ccc2nccc(Sc3ccc(Nc4nnc(-c5ccccc5)c5ccccc45)cc3)c2c1` [compound 292, N-(4-((6-(methyloxy)-4-quinolinyl)thio)phenyl)-4-phenyl-1-phthalazinamine], the IC50 on AuroraA-TPX2 was 0.144 µM; at AuroraB, 0.011 µM.
The matching figures for `Clc1ccc(-c2nnc(Nc3ccc(Oc4ccnc5[nH]ccc45)cc3)c3ccccc23)cc1` [compound 241, 4-(4-chlorophenyl)-N-(4-(1H-pyrrolo[2,3-b]pyridin-4-yloxy)phenyl)-1-phthalazinamine]: 0.089 µM and 0.001 µM.
In the case of `COc1cc2nccc(Oc3ccc(Nc4ncc(-c5ccccc5)c5ccccc45)cc3)c2cn1` [compound 145, N-(4-((7-(methyloxy)-1,6-naphthyridin-4-yl)oxy)phenyl)-4-phenyl-1-isoquinolinamine], the IC50 at AuroraA-TPX2 was found to be 0.326 µM; on AuroraB, 0.096 µM.
For `NC(=O)c1cc2nccc(Oc3ccc(Nc4nnc(-c5ccccc5)c5ccccc45)cc3)c2s1` [Example 46, 7-(4-(4-phenylphthalazin-1-ylamino)phenoxy)thieno[3,2-b]pyridine-2-carboxamide], the IC50 at AuroraA-TPX2 was 0.015 µM; on AuroraB, 0.001 µM.
For `Brc1ccc2nccc(Oc3ccc(Nc4nnc(-c5ccccc5)c5ccccc45)cc3)c2c1` [compound 134, N-(4-((6-bromo-4-quinolinyl)oxy)phenyl)-4-phenyl-1-phthalazinamine], the IC50 turned out to be 0.176 µM at AuroraA-TPX2 and 0.024 µM on AuroraB.
The matching figures for `c1ccc(-c2nnc(Nc3ccc(Sc4ccnc5[nH]ncc45)cc3)c3ccccc23)cc1` [compound 352, N-(4-(1H-pyrazolo[3,4-b]pyridin-4-ylthio)phenyl)-4-phenylphthalazin-1-amine]: 0.074 µM and 0.001 µM.
As for `COc1cnc2c(Sc3ccc(Nc4nnc(N5CCN6CCC[C@H]6C5)c5ccccc45)cc3)ccnc2c1` [compound 563], the IC50 on AuroraA-TPX2 was 0.023 µM; at AuroraB, 0.009 µM.
As for `COc1cnc2c(Oc3ccc(Nc4nnc(-c5ccc(F)c(OC)c5)c5ccccc45)cc3)ccnc2c1` [compound 180, 4-(4-fluoro-3-(methyloxy)phenyl)-N-(4-((7-(methyloxy)-1,5-naphthyridin-4-yl)oxy)phenyl)-1-phthalazinamine], the IC50 is 0.027 µM at AuroraA-TPX2 and 0.004 µM at AuroraB.
Consider `COc1cnc2c(Sc3ccc(Nc4nnc(N5CCN6CCCC[C@@H]6C5)c5ccccc45)cc3)ccnc2c1` [compound 580], for which the IC50 on AuroraA-TPX2 stood at 0.023 µM; on AuroraB it was 0.005 µM.
The matching figures for `COc1cnc2c(Oc3ccc(Nc4nnc(-c5ccccc5)c5ccccc45)cn3)ccnc2c1` [Example 41, N-(6-(7-methoxy-1,5-naphthyridin-4-yloxy)pyridin-3-yl)-4-phenylphthalazin-1-amine]: 0.079 µM and 0.009 µM.
For the compound `CCc1cc(N2CC[C@H]3CCCC[C@@H]3C2)nnc1Nc1ccc(Oc2ccnc3cc(OC)cnc23)cc1` [compound 320, 4-ethyl-N-(4-((7-(methyloxy)-1,5-naphthyridin-4-yl)oxy)phenyl)-6-((4aR,8aS)-octahydro-2(1H)-isoquinolinyl)-3-pyridazinamine], the results for the IC50 at AuroraA-TPX2 and on AuroraB were 0.112 µM and 0.067 µM, respectively.
Regarding `Cc1csc(-c2nnc(Nc3ccc(Sc4ccnc5ccoc45)cc3)c3ccccc23)c1` [compound 468], the IC50 at AuroraA-TPX2 amounted to 0.129 µM; at AuroraB, 0.029 µM.
Consider `COc1cnc2c(Sc3ccc(Nc4nnc(-c5ccc(C)c(OC)c5)c5ccccc45)cc3)ccnc2c1` [compound 529], for which the IC50 on AuroraA-TPX2 was 0.02 µM; at AuroraB, 0.037 µM.
As for `Fc1cc(F)c2c(Sc3ccc(Nc4nnc(-c5ccc(Cl)cc5)c5ccccc45)cc3)ccnc2c1` [compound 342, 4-(4-chlorophenyl)-N-(4-(5,7-difluoroquinolin-4-ylthio)phenyl)phthalazin-1-amine], the IC50 was determined as 0.189 µM on AuroraA-TPX2 and 0.045 µM at AuroraB.
In the case of `COc1cnc2c(Oc3ccc(Nc4nnc(-c5ccccc5)cc4C(C)C)cc3)ccnc2c1` [compound 234, 4-(1-methylethyl)-N-(4-((7-(methyloxy)-1,5-naphthyridin-4-yl)oxy)phenyl)-6-phenyl-3-pyridazinamine], the figures for the IC50 at AuroraA-TPX2 and on AuroraB were 0.173 µM and 0.006 µM, respectively.
The matching figures for `CCN(CC)C(=O)c1cc2nccc(Oc3ccc(Nc4nnc(-c5ccc(Cl)cc5)c5ccccc45)cc3)c2s1` [compound 270, 7-((4-((4-(4-chlorophenyl)-1-phthalazinyl)amino)phenyl)oxy)-N,N-diethylthieno[3,2-b]pyridine-2-carboxamide]: 0.084 µM and 0.01 µM.
For `COCCNc1nnc(Nc2ccc(Sc3ccnc4cc(OC)cnc34)cc2)c2ccccc12` [compound 533], the IC50 worked out at 0.045 µM at AuroraA-TPX2 and 0.03 µM at AuroraB.
The like results for `c1ccc(-c2nnc(Nc3ccc(Oc4ccnc5cc(N6CCOCC6)ccc45)cc3)c3ccccc23)cc1` [Example 42, N-(4-(7-Morpholinoquinolin-4-yloxy)phenyl)-4-phenylphthalazin-1-amine] were, in that order, 0.011 µM and 0.002 µM.
Take `COc1cnc2c(Sc3ccc(Nc4nnc(-c5cccc(Cl)c5)c5ccccc45)cc3)ccnc2c1` [compound 516]: the IC50 is 0.088 µM on AuroraA-TPX2 and 0.068 µM at AuroraB.
For `N#Cc1ccc2nccc(Oc3ccc(Nc4nnc(-c5ccccc5)c5ccccc45)cc3)c2c1` [compound 592], the IC50 at AuroraA-TPX2 turned out to be 0.338 µM; at AuroraB, 0.022 µM.
Turning to `COc1ccc2c(Sc3ccc(Nc4nnc(-c5ccc(Cl)cc5)c5ccccc45)cc3)ccnc2c1` [compound 334, 4-(4-chlorophenyl)-N-(4-(7-methoxyquinolin-4-ylthio)phenyl)phthalazin-1-amine], the figures for the IC50 on AuroraA-TPX2 and at AuroraB were 0.049 µM and 0.067 µM, respectively.
The matching figures for `COc1ccc2nccc(Oc3ccc(Nc4nnc(-c5ccc(C)cn5)c5ccccc45)cc3)c2c1` [compound 554]: 0.172 µM and 0.011 µM.
As to `COc1cnc2c(Oc3ccc(Nc4nnc(-c5cnc6[nH]ccc6c5)c5ccccc45)cc3)ccnc2c1` [compound 280, N-(4-((7-(methyloxy)-1,5-naphthyridin-4-yl)oxy)phenyl)-4-(1H-pyrrolo[2,3-b]pyridin-5-yl)-1-phthalazinamine], the IC50 at AuroraA-TPX2 was found to be 0.062 µM; on AuroraB, 0.002 µM.
Take `COc1cc(OC)c2c(Oc3ccc(Nc4nnc(-c5cc(C)cs5)c5ccccc45)cc3)ncnc2c1` [compound 573]: the IC50 at AuroraA-TPX2 came out at 0.042 µM; on AuroraB, 0.114 µM.
As for `COc1cnc2c(Sc3ccc(Nc4nnc(-c5ccc6cn(C)nc6c5)c5ccccc45)cc3)ccnc2c1` [compound 502], the IC50 at AuroraA-TPX2 came out at 0.027 µM; on AuroraB, 0.009 µM.
For `N#Cc1cc2nccc(Sc3ccc(Nc4nnc(-c5ccc6c(c5)OCO6)c5ccccc45)cc3)c2s1` [compound 457], the IC50 on AuroraA-TPX2 amounted to 0.062 µM; at AuroraB, 0.015 µM.
As for `COc1cc(OC)c2c(Sc3ccc(Nc4nnc(-c5ccccc5)c5ccccc45)cc3)ncnc2c1` [compound 581], the IC50 at AuroraA-TPX2 was determined as 1.13 µM; at AuroraB, 0.236 µM.
The like results for `COc1cnc2c(Oc3ccc(Nc4nnc(N5CCN6CCCCC[C@@H]6C5)c5ccccc45)cc3)ccnc2c1` [compound 604] were, in that order, 0.027 µM and 0.013 µM.
Regarding `CN(c1ccc(Oc2ccnc3ccc(=O)[nH]c23)cc1)c1nnc(-c2ccc(Cl)cc2)c2ccccc12` [compound 500], the IC50 was > 25 µM at AuroraA-TPX2 and 4.17 µM on AuroraB.
The like results for `COc1cnc2c(Oc3ccc(Nc4nnc(-c5cc(C)c(C)s5)c5ccccc45)cc3)ccnc2c1` [compound 260, 4-(4,5-dimethyl-2-thienyl)-N-(4-((7-(methyloxy)-1,5-naphthyridin-4-yl)oxy)phenyl)-1-phthalazinamine] were, in that order, 0.008 µM and 0.009 µM.
